Measured values: patent US8598413B2, “AAD-1 event DAS-40278-9, related transgenic corn lines, event-specific identification thereof, and methods of weed control involving AAD-1” (Dow AgroSciecnes, LLC., priority 2009, dated 2013)

Assays:
[1] = test system: hybrid corn containing the aad-1 gene; assay: 2,4-D amine applied 7, 15 or 30 days preplanting, corn (Example 13); type: in vivo; details: 1120, 2240, 4480 g ae/ha at 7, 15 or 30 days preplanting
Source text: Preemergence applications of 2,4-D amine are applied at rates of 1120, 2240, 4480 g ae/ha at 7 days, 15 days, or 30 days preplanting to hybrid corn containing the aad-1 gene and conventional control hybrids. The preemergence applications are applied using art recognized procedures to field plots which are located at geographically distinct locales. Herbicide-treated plots are paired with untreated plots to provide accurate evaluation of emergence and early season growth. Approximately 16-21 days after planting and 2,4-D applications at 7, 15 or 30 days preplanting; injury of the conventional control hybrids and hybrid corn containing aad-1 are measured.

[2] = test system: hybrid corn containing pDAS1740-278; assay: Field tolerance to preemergence applications of 2,4-D (Example 13, Table 31); type: in vivo; details: PRE (0-2 days after planting), evaluated 16-21 days after application, pDAS1740-278 Hybrid
Procedure: (§1) Transgenic hybrid corn (pDAS1740-278) containing the aad-1 gene which encodes the aryloxyalkanoate dioxygenase (AAD-1) protein was evaluated for tolerance to preemergence applications of 2,4-D in the field. Trials were conducted at multiple locations in Mississippi, Indiana, and Minnesota using a randomized complete block design with three replications of two row plots, approximately 6 m in length, at each site. Herbicide-treated plots were paired with untreated plots to provide accurate evaluation of emergence and early season growth. Herbicide treatments of 1120, 2240, and 4480 g ae/ha of 2,4-D amine were applied shortly after planting but before crop emergence (0-2 days after planting). Soil and precipitation information for these trials is contained in Table 30.

[3] = test system: transgenic cotton containing the aad-1 gene; assay: Field tolerance of aad-1 cotton to preemergence applications of 2,4-D (Example 13); type: in vivo
Procedure: Transgenic cotton containing the aad-1 gene which encodes the aryloxyalkanoate dioxygenase (AAD-1) protein was evaluated for tolerance to preemergence applications of 2,4-D in the field. Trials consisted of three replications and were conducted at multiple locations in Mississippi, Georgia, Tennessee, and Arkansas. A randomized complete block design of a single row separated by a guard row, approximately 10 feet (20 feet for the Mississippi trial) in length was used. Seed was planted using 8 seed per foot, plants were then hand thinned to 3.5 plants/foot of row. Herbicide-treated plots were paired with untreated plots to provide accurate evaluation of emergence and early season growth. All plots received at least ½ inch of rain or irrigation water within 24 hours of application. Herbicide treatments of 560, 1120, 2240, and 4480 g ae/ha of 2,4-D amine (WEEDAR 64, Nufarm, Burr Ridge, Ill.) were applied shortly after planting but before crop emergence. Soil and precipitation information for these trials is contained in Table 32.

[4] = test system: conventional control hybrid; assay: Field tolerance to preemergence applications of 2,4-D (Example 13, Table 31); type: in vivo, corn; details: PRE (0-2 days after planting), evaluated 16-21 days after application
Procedure: as §1

[5] = preemergence 560, 1120, 2240 and 4480 gm ae/ha

Which “tolerance of preemergence treatments” value [1] does the source give for `O=C(O)COc1ccc(Cl)cc1Cl` [2,4-D, 2,4-dichlorophenoxyacetic acid] here?
The value was “robust tolerance”.

And the “Percent Plant Injury” value ([2]; 1120 g ae/ha)?
Its value is 3%.

What about the “Percent Plant Injury” value ([2]; 2240 g ae/ha) of the same compound?
The value was 4%.

What about the “Percent Plant Injury” value ([2]; 4480 g ae/ha) of the same compound?
The value was 9%.

What about the Chlorosis ([3]; 560, 1120, 2240 and 4480 gm ae/ha, remainder of the season) of the same compound?
Its Chlorosis is “not detected”.

And the Injury ([3]; 560 and 1120 gm ae/ha)?
The Injury was “not significantly different from the untreated control plot”.

And the growth inhibition ([3]; 560 and 1120 gm ae/ha, 7 to 8, 11 to 14, 27 to 30 and 52 to 57 days after application)?
Its growth inhibition is “less than 2%”.

What about the Chlorosis ([3]; 560 and 1120 gm ae/ha, 7 to 8 days after application) of the same compound?
The Chlorosis was “not detected”.

What about the stand reduction ([3]; 560 gm ae/ha, 7 to 8 days after planting and preemergence application) of the same compound?
The stand reduction was 3%.

What about the stand reduction ([3]; 560 gm ae/ha, 11 to 14 days after planting and application) of the same compound?
The stand reduction was 5%.

And the stand reduction ([3]; 1120 gm ae/ha, 7 to 8 days after planting and preemergence application)?
The stand reduction was “no reduction”.

What about the stand reduction ([3]; 1120 gm ae/ha, 11 to 14 days after planting and application) of the same compound?
The stand reduction was 2%.

What about the “Chlorosis, visual rating” value ([3]; 2240 and 4480 gm ae/ha, 7-8 days after application) of the same compound?
Its value is less than 5%.

What about the growth inhibition ([3]; 2240 gm ae/ha) of the same compound?
The growth inhibition was less than 10%.

What about the stand reduction ([3]; 2240 gm ae/ha, 7 to 8 days after planting and preemergence application) of the same compound?
The stand reduction was 19%.

What about the stand reduction ([3]; 2240 gm ae/ha, 11 to 14 days after planting and application) of the same compound?
Its stand reduction is 14%.

What about the growth inhibition ([3]; 4480 gm ae/ha, 7 to 8 days after application) of the same compound?
Its growth inhibition is 27%.

What about the stand reduction ([3]; 4480 gm ae/ha, 7 to 8 days after planting and preemergence application) of the same compound?
Its stand reduction is 34%.

What about the growth inhibition ([3]; 4480 gm ae/ha, 11 to 14 days after application) of the same compound?
The growth inhibition was 28%.

What about the stand reduction ([3]; 4480 gm ae/ha, 11 to 14 days after planting and application) of the same compound?
The stand reduction was 25%.

What about the growth inhibition ([3]; 4480 gm ae/ha, 27 to 30 days after application) of the same compound?
Its growth inhibition is 17%.

What about the growth inhibition ([3]; 4480 gm ae/ha, 52 to 57 days after application) of the same compound?
Its growth inhibition is 8.3%.

And the “Differences in plant height, fruiting pattern, and yield” value [3, 5]?
The value was “not detected”.

What about the epinasty [3, 5] of the same compound?
The epinasty was “did not cause epinasty”.

What about the “effect on plant stands” value ([3]; preemergence 560, 1120 and 2240 gm ae/ha, compared to untreated plot) of the same compound?
Its value is “did not significantly affect plant stands”.

And the “Percent Plant Injury” value ([4]; 1120 g ae/ha)?
The value was 12%.

What about the “Percent Plant Injury” value ([4]; 2240 g ae/ha) of the same compound?
Its value is 16%.

What about the “Percent Plant Injury” value ([4]; 4480 g ae/ha) of the same compound?
The value was 31%.
